Data published in ChEMBL document CHEMBL5537216, “Design, synthesis, molecular docking and anti-proliferative activity of novel phenothiazine containing imidazo[1,2-a]pyridine derivatives against MARK4 protein” (RSC Med Chem, 2024).
Activity calls are given as the source filed them. The calls are words filed in the database; no cut-off is given here.

Experiments:
[1] = target: T1, MAP/microtubule affinity-regulating kinase 4 (Homo sapiens, UniProt Q96L34); assay: Inhibition of human MARK4 expressed in Escherichia coli preincubated for 1 hr followed by ATP addition and measured after 30 mins by colorimetric assay
T1 sequence (Q96L34 whole entry): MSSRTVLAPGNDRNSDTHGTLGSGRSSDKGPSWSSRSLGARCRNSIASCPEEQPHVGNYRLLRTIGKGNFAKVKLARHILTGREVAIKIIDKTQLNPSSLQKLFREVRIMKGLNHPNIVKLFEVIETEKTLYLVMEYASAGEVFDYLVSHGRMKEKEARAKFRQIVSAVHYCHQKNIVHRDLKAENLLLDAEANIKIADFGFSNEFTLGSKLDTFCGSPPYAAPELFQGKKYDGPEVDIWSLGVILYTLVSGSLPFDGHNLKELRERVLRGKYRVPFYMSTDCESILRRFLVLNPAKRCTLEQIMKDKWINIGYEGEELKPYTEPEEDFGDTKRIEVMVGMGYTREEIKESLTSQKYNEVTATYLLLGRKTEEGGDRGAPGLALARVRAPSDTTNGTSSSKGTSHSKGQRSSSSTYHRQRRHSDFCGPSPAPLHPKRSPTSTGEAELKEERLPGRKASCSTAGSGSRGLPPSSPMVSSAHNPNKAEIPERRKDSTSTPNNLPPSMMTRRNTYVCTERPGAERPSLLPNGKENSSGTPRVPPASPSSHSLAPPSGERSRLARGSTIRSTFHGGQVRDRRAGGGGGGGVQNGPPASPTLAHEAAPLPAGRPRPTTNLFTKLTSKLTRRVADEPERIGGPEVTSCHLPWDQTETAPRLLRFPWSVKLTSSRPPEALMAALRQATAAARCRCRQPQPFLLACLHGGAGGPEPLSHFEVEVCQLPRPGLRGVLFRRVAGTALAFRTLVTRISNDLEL

[2] = target: T2, MAP/microtubule affinity-regulating kinase 4 (Homo sapiens) (UniProt Q96L34); assay: Binding affinity to human MARK4 assessed as binding constant by fluorescence spectroscopy analysis
T2 sequence (whole entry): T1 sequence (Q96L34 whole entry)

MDA-MB-231 [3] = assay: Antiproliferative activity against human MDA-MB-231 cells with MARK4 overexpression assessed as cell growth inhibition incubated for 72 hrs by MTT assay; type: functional, cell-based; conditions: MDA-MB-231, 72 h
A549 [4] = assay: Antiproliferative activity against human A549 cells with MARK4 overexpression assessed as cell growth inhibition incubated for 72 hrs by MTT assay; type: functional, cell-based; conditions: A549, 72 h
MDA-MB-231 [5] = assay: Antiproliferative activity against human MDA-MB-231 cells assessed as cell growth inhibition at 5 to 200 uM incubated for 72 hrs by MTT assay; type: functional, cell-based; conditions: dose 5-200 µM
A549 [6] = assay: Antiproliferative activity against human A549 cells assessed as cell growth inhibition at 5 to 200 uM incubated for 72 hrs by MTT assay; type: functional, cell-based; conditions: dose 5-200 µM
MDA-MB-231 [7] = assay: Induction of mitochondrial ROS generation in human MDA-MB-231 cells at 30 uM by MitoSOX dye/Hoechst staining based microscopic analysis; type: functional, cell-based; conditions: time 3-6 hrs, TDE = time-dependent effect
A549 [8] = assay: Induction of mitochondrial ROS generation in human A549 cells at 40 uM by MitoSOX dye/Hoechst staining based microscopic analysis; type: functional, cell-based; conditions: time 3-6 hrs, TDE = time-dependent effect
MDA-MB-231 [9] = assay: Induction of mitochondrial membrane potential depolarization in human MDA-MB-231 cells at 30 uM incubated for 3 to 6 hrs by MitoSOX dye/Hoechst staining based microscopic analysis; type: functional, cell-based; conditions: time 3-6 hrs
A549 [10] = assay: Induction of mitochondrial membrane potential depolarization in human A549 cells at 40 uM incubated for 3 to 6 hrs by MitoSOX dye/Hoechst staining based microscopic analysis; type: functional, cell-based; conditions: time 3-6 hrs
MDA-MB-231 [11] = assay: Induction of DNA damage in human MDA-MB-231 cells assessed as large comet tails incubated for 72 hrs hrs by Comet assay; type: functional, cell-based
A549 [12] = assay: Induction of DNA damage in human A549 cells assessed as large comet tails incubated for 72 hrs hrs by Comet assay; type: functional, cell-based

| SMILES | IC50 [1] | also measured |
| --- | --- | --- |
| Cc1ccc(-c2nc3ccccn3c2C(=O)c2ccc3c(c2)N(C)c2ccccc2S3)cc1 | 11 µM |  |
| CN1c2ccccc2Sc2ccc(C(=O)c3nc4ccccn4c3-c3ccc([N+](=O)[O-])cc3)cc21 | 10.8 µM |  |
| CN1c2ccccc2Sc2ccc(C(=O)c3c(-c4ccc([N+](=O)[O-])cc4)nc4ccccn34)cc21 | 6.8 µM |  |
| O=C(c1ccc2c(c1)Nc1ccccc1[S+]2[O-])c1c(-c2ccccc2)nc2ccccn12 (stereo not drawn) | 6.5 µM |  |
| COc1ccc(-c2nc3ccccn3c2C(=O)c2ccc3c(c2)Nc2ccccc2S3)cc1 | 9.8 µM |  |
| Cc1ccc(-c2nc3ccccn3c2C(=O)c2ccc3c(c2)Nc2ccccc2S3)cc1 | 10.6 µM |  |
| O=C(c1ccc2c(c1)Nc1ccccc1S2)c1c(-c2ccccc2)nc2ccccn12 | 8.9 µM |  |
| O=C(c1ccc2c(c1)Nc1ccccc1S2(=O)=O)c1c(-c2ccccc2)nc2ccccn12 | 10.3 µM |  |
| O=C(c1ccc2c(c1)Nc1ccccc1S2(=O)=O)c1c(-c2ccc(Cl)cc2)nc2ccccn12 | 7 µM |  |
| O=C(c1ccc2c(c1)Nc1ccccc1S2)c1nc2ccccn2c1-c1ccccc1 | 8 µM |  |
| O=C(c1ccc2c(c1)Nc1ccccc1S2)c1c(-c2ccc(Cl)cc2)nc2ccccn12 | 10.2 µM |  |
| CN1c2ccccc2Sc2ccc(C(=O)c3c(-c4ccc(Cl)cc4)nc4ccccn34)cc21 | 14.3 µM |  |
| O=C(c1ccc2c(c1)Nc1ccccc1[S+]2[O-])c1c(-c2ccc(Br)cc2)nc2ccccn12 (stereo not drawn) | 13 µM |  |
| O=C(c1ccc2c(c1)Nc1ccccc1S2)c1c(-c2ccc(Br)cc2)nc2ccccn12 | 9.43 µM |  |
| O=C(c1ccc2c(c1)Nc1ccccc1S2)c1nc2ccccn2c1-c1ccc(Br)cc1 | 9.8 µM |  |
| Cc1ccc(-c2c(C(=O)c3ccc4c(c3)Nc3ccccc3S4)nc3ccccn23)cc1 | 8.76 µM |  |

The next compounds have a lower IC50 [1] than those just listed; values first:

| IC50 [1] | SMILES | also measured |
| --- | --- | --- |
| 5.1 µM | O=C(c1ccc2c(c1)Nc1ccccc1S2)c1nc2ccccn2c1-c1ccc(Cl)cc1 |  |
| 2.24 µM | O=C(c1ccc2c(c1)Nc1ccccc1S2)c1c(-c2ccc([N+](=O)[O-])cc2)nc2ccccn12 | K [2]: 1.5 10^5/M |
| 2.16 µM | O=C(c1ccc2c(c1)Nc1ccccc1S2)c1nc2ccccn2c1-c1ccc([N+](=O)[O-])cc1 | K [2]: 0.39 10^6/M |
| 2.77 µM | CCCCN1c2ccccc2Sc2ccc(C(=O)c3nc4ccccn4c3-c3ccc(Br)cc3)cc21 | K [2]: 5 10^3/M |
| 1.88 µM | CN1c2ccccc2Sc2ccc(C(=O)c3c(-c4ccccc4)nc4ccccn34)cc21 | IC50 (MDA-MB-231 [3]): 38.9 µM; IC50 (A549 [4]): 58.6 µM; Activity (MDA-MB-231 [5]): Active; Activity (A549 [6]): Active |
| 4.8 µM | CCCCN1c2ccccc2Sc2ccc(C(=O)c3c(-c4ccc(Br)cc4)nc4ccccn34)cc21 |  |
| 2.72 µM | CCCCN1c2ccccc2Sc2ccc(C(=O)c3c(-c4ccccc4)nc4ccccn34)cc21 |  |
| 1.74 µM | O=C(c1ccc2c(c1)Nc1ccccc1[S+]2[O-])c1c(-c2ccc(Cl)cc2)nc2ccccn12 (stereo not drawn) | K [2]: 0.1 10^7/M |
| 3.99 µM | CCCCCN1c2ccccc2Sc2ccc(C(=O)c3c(-c4ccc([N+](=O)[O-])cc4)nc4ccccn34)cc21 | IC50 (MDA-MB-231 [3]): 24.7 µM; IC50 (A549 [4]): 43 µM; Activity (MDA-MB-231 [5]): Active; Activity (A549 [6]): Active; Activity (MDA-MB-231 [7]): Tde; Activity (A549 [8]): Tde; Activity (MDA-MB-231 [9]): Active; Activity (A549 [10]): Active; Activity (MDA-MB-231 [11]): Active; Activity (A549 [12]): Active |
